Laboratory results as given in patent US9493507B2, “Glutathione-elevating compositions and uses thereof” (Oneday— Biotech And Pharma Ltd., priority 2012, dated 2016).
Entries after “also recorded” stand apart in the source; their conditions may differ.

Test system: murine erythrocytes
Test: Effect of DY-65 on GSH, GSSG and GSH:GSSG ratio in murine erythrocytes exposed to hydrogen peroxide
Format: cell-based, mice
Conditions: DY-65 5 μM
Procedure: The in vitro efficacy of peptide DY-65 in suppressing the decrease in the ratio of GSH to GSSG in murine erythrocytes exposed to hydrogen peroxide was tested.
Murine erythrocytes (“Cells”) were prepared by washing freshly harvested whole blood from mice three times in PBS. Cells were resuspended in DMEM at a concentration of 10^6 per mL. All study conditions were evaluated in triplicate.
Hydrogen peroxide (200 μM) was utilized to induce redox stress in murine erythrocytes (“Cells”). Prior to exposure to hydrogen peroxide, cells were randomly allocated to the following experimental groups:
1. Sham (no exposure to hydrogen peroxide; no drug) • a. 2.5 h final incubation
2. Vehicle control (hydrogen peroxide; no drug) • a. 1.0 h final incubation • b. 1.5 h final incubation • c. 2.0 h final incubation • d. 2.5 h final incubation
3. DY-65 (5 μM)+hydrogen peroxide • a. 1.0 h final incubation • b. 1.5 h final incubation • c. 2.0 h final incubation • d. 2.5 h final incubation
Cells at a concentration of 10^6 per mL were incubated with vehicle DMEM (Groups 1 or 2) or peptide DY-65 (Group 3) for 3 hours at 37° C. Thereafter, cells were washed three times with DMEM and resuspended in vehicle DMEM (Group 1) or hydrogen peroxide in DMEM (Groups 2-3) for 1 hour at 37° C.
Thereafter, cells were washed three times with DMEM and resuspended in DMEM at 37° C., 10^6 per mL, with peptide DY-65 (Group 3) or without peptide DY-65 (Groups 1-2). The duration of final incubation was 1.0, 1.5, 2.0, or 2.5 h. Cells were then pelleted, lysed, and processed for measurement of GSH and GSSG using a Glutathione Assay kit sold by Cayman (Chemical Item Number 703002). Data were expressed as micromoles of GSH or GSSG per 1 million erythrocytes.
Given 9 conditions, 3 replicates per condition, and 2 endpoints (GSH and GSSG), a total of 54 wells were incubated.
Data analysis. All values in the figure and text below were expressed as mean±standard deviation (SD) and standard error (SE) of n observations. The results were analyzed by one-way ANOVA followed by Tukey's post-hoc test for multiple comparisons. […]

N-acetyl-Cys-Lys-Met-Cys-NH2 (Ac-CKMC-NH2; cysteine pairing not given here) [DY-65]
effect on GSH concentration after hydrogen peroxide (hydrogen peroxide 200 μM 1 h, 1 h final incubation, FIG. 2C): completely protective; also recorded: increase GSH | effect on GSSG elevation in response to hydrogen peroxide (hydrogen peroxide 200 μM 1 h, final incubation 1.0-2.5 h, FIG. 2D): uniformly effective in suppressing the elevation of GSSG; also recorded: decrease GSSG | ratio of GSH to GSSG (hydrogen peroxide 200 μM, earliest time point, 1 h post exposure, FIG. 2E): clear benefit
